Results taken from patent publication US20240360151A1 (SANOFI, priority 2023, published 2024).

target: T1, NLRP3 inflammasome (Homo sapiens, UniProt Q96P20); assay: IL-1β secretion assay (NLRP3 IC50) in LPS-primed, nigericin-activated THP-1 cells, HTRF; format: cell-based; details: monocytic THP-1 cells; LPS 10 ng/mL 3 h priming, then compound + nigericin 10 μM 2 h; relative IC50, 10 concentrations, geometric mean
T1 construct: endogenous in cells; host or cells: THP-1 monocytic cells
Experimental: Monocytic THP-1 cells were maintained in RPMI 1640 media (Gibco 21875)+10% FBS, (Gibco 10500)+1% penicillin/streptomycin (Gibco 15140-122). Cells were then plated at 40,000 cells per well in 384-well cell culture plates (CoRNning 3542) and maintained with RPMI1640 (Gibco 11835)+5% FBS (Gibco 10500). Activation of the NLRP3 inflammasome requires both an NF-kB-dependent priming step and the addition of a NLRP3 activator. The priming step was induced by LPS (10 ng/mL, InvivoGen ref tlrl-3pelps) for 3 h at 37° C., then compound, in a 1:3 serial dilution series in DMSO (final concentration DMSO 0.1%), and the activator nigericin (Sigma Aldrich, ref: SML1779) 10 μM (final concentration) were added to the cells and co-incubated for 2 hours. 16 μL supernatant was removed, and IL-1β levels were monitored using an HTRF assay (Human IL1b Kits HTRF Cisbio ref: 62HILBPEH) according to manufacturers' instructions.
Data were expressed as percentage of inhibition (I %) as compared to a maximum signal control containing no small molecule (I %=0%) according to the formula: 1%=(1−((Sample−Min))/((Max−Min)))×100, where: • Sample: Signal obtained in the presence of each compound tested, • Max: Maximum signal in the absence of compound added, • Min: Minimum or background signal obtained in the absence of activation signal.
Relative IC50 (IC50 rel) were obtained from a dose response curve with 10 concentrations. Final IC50 rels are expressed as the geometric mean.
Relative IC50 values were estimated with Biost@t-SPEED v2.4 internal software based on SAS system using the 4-parameter logistic model according to Ratkovsky and Reedy (D. A. Ratkovsky, T. J. Reedy, Choosing near-linear parameters in the four parameters logistic model radioligands and related assays. Biometrics, 42 (1986), 575-582): Y=A+C/((1+exp(−B*(log(X)−M)))), where: • A: Lower asymptote (BOTTOM), • A+C: Upper asymptote (TOP), • M: the logarithm of the concentration estimated at the inflexion point (the logarithm of the relative IC50), • B: Slope at the inflexion point of the curve.

T1 sequence (Q96P20 whole entry): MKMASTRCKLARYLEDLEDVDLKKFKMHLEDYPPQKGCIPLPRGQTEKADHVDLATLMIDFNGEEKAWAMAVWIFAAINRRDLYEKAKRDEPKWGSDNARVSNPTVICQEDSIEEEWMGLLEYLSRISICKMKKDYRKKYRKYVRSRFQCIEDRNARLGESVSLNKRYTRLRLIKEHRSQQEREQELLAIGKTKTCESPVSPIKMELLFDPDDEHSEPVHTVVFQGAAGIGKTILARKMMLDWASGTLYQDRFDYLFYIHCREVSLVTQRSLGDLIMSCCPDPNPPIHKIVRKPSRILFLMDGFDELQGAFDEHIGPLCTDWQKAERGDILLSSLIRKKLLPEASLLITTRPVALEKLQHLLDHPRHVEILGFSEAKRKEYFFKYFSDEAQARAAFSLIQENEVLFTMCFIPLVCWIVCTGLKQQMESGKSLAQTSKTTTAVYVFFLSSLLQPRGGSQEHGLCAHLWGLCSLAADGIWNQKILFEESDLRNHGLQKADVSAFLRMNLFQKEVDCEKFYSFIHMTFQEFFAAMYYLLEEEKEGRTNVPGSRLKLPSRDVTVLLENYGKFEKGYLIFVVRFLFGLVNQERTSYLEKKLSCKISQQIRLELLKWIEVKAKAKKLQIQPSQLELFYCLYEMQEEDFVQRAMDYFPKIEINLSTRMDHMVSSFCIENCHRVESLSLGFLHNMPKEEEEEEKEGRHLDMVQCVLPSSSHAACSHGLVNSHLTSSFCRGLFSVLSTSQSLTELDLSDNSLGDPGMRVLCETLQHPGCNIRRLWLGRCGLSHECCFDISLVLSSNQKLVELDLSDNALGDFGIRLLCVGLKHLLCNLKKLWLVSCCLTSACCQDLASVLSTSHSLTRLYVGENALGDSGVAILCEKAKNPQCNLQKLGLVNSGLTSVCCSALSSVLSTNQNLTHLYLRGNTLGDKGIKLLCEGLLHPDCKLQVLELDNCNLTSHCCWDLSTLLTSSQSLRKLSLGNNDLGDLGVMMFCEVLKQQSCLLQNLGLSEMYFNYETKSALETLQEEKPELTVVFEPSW

Row | Structure (SMILES) | IC50
1 | Cc1cc(C(F)(F)F)cc(O)c1-c1ccc(N2CCOC(C(C)(C)O)C2)nn1 (single isomer, unassigned) [Example 52, 2-[6-[2-(1-hydroxy-1-methyl-ethyl)morpholin-4-yl]pyridazin-3-yl]-3-methyl-5-(trifluoromethyl)phenol] | 1250 nM
2 | Cc1cc(C)c(-c2ccc(N3CC4(CCC(O)C4)C3)nn2)c(O)c1 (single isomer, unassigned) [Example 95, 2-[6-(2-hydroxy-4,6-dimethyl-phenyl)pyridazin-3-yl]-2-azaspiro[3.4]octan-6-ol] | 2200 nM
3 | Cc1cc(C)c(-c2ccc(N3CCO[C@H](C4(N)CC4)C3)nn2)c(O)c1 (single isomer, unassigned) [Example 135] | 997 nM
4 | Cc1cc(C)c(-c2ccc(N3CCO[C@@H](C4(N)CC4)C3)nn2)c(O)c1 (single isomer, unassigned) [Example 136] | 3030 nM
5 | Cc1cc(C)c(-c2ccc(N3CCO[C@H](CC(=O)N(C)C)C3)nn2)c(O)c1 (single isomer, unassigned) [Example 150] | 1790 nM
6 | Cc1cc(C)c(-c2ccc(N3CCO[C@@H](CC(=O)N(C)C)C3)nn2)c(O)c1 (single isomer, unassigned) [Example 151] | 1170 nM
7 | Cc1cc(C(F)(F)F)cc(O)c1-c1ccc(N2CCO[C@@H](CF)C2)nn1 (single isomer, unassigned) [Example 283] | 135 nM
8 | Cc1cc(C(F)(F)F)cc(O)c1-c1ccc(N2CCC[C@H](CO)C2=O)nn1 (single isomer, unassigned) [Example 287] | 115 nM
9 | Cc1cc(C(F)(F)F)cc(O)c1-c1ccc(N2CCC[C@@H](CO)C2=O)nn1 (single isomer, unassigned) [Example 288] | 143 nM
10 | Cc1cc(C(F)(F)F)cc(O)c1-c1ccc(N2CC[C@H](CO)C2=O)nn1 (single isomer, unassigned) [Example 325] | 275 nM
11 | Cc1cc(C(F)(F)F)cc(O)c1-c1ccc(N2CC[C@@H](CO)C2=O)nn1 (single isomer, unassigned) [Example 326] | 198 nM
12 | Cc1cc(C(F)(F)F)cc(O)c1-c1ccc(N2CCO[C@H](CC#N)C2)nn1 (single isomer, unassigned) [Example 327] | 292 nM
13 | Cc1cc(C(F)(F)F)cc(O)c1-c1ccc(N2CCO[C@@H](CC#N)C2)nn1 (single isomer, unassigned) [Example 328] | 219 nM
14 | Cc1cc(C)c(-c2ccc(N3CC(=O)N[C@@H](CO)C3)nn2)c(O)c1 (single isomer, unassigned) [Example 329] | 711 nM
15 | Cc1cc(C)c(-c2ccc(N3CC(=O)N[C@H](CO)C3)nn2)c(O)c1 (single isomer, unassigned) [Example 330] | 987 nM
16 | CNCC[C@@H]1CN(c2ccc(-c3c(C)cc(C(F)(F)F)cc3O)nn2)CCO1 (single isomer, unassigned) [Example 331] | 1080 nM
17 | CNCC[C@H]1CN(c2ccc(-c3c(C)cc(C(F)(F)F)cc3O)nn2)CCO1 (single isomer, unassigned) [Example 332] | 396 nM
18 | Cc1cc(C(F)(F)F)cc(O)c1-c1ccc(N2CC[C@H]3CCNC[C@H]32)nn1 (single isomer, unassigned) [Example 393] | 461 nM
19 | Cc1cccc(O)c1-c1ccc(N2CC[C@@H]3CCN(C)C[C@@H]32)nn1 (single isomer, unassigned) [Example 415] | 4660 nM
20 | Cc1cc(C(F)(F)F)cc(O)c1-c1ccc(N2CCOC(CO)C2=O)nn1 (single isomer, unassigned) [Example 419] | 127 nM
21 | Cc1cc(C(F)(F)F)cc(O)c1-c1ccc(N2CCOC(CO)C2=O)nn1 (single isomer, unassigned) [Example 420] | 601 nM
22 | CCc1cccc(O)c1-c1ccc(N2CC[C@@H]3CCN(C)C[C@@H]32)nn1 (single isomer, unassigned) [Example 422] | 1140 nM
23 | CN1CC[C@@H]2CCN(c3ccc(-c4c(O)cccc4C(F)(F)F)nn3)[C@@H]2C1 (single isomer, unassigned) [Example 426] | 952 nM
24 | Cc1cc(N2CC[C@H]3CCN(C)C[C@H]32)nnc1-c1ccc(Cl)cc1O (single isomer, unassigned) [Example 468] | 544 nM
25 | Cc1cc(N2CC[C@H]3CCN(C)C[C@H]32)nnc1-c1ccc(Cl)cc1O (single isomer, unassigned) [Example 469] | 1 nM
26 | CCN1CC[C@@H]2CCN(c3ccc(-c4c(O)cccc4C(F)(F)F)nn3)[C@@H]2C1 (single isomer, unassigned) [Example 473] | 5 nM
27 | CCN1CC[C@@H]2CCN(c3cc(C)c(-c4ccc(C)cc4O)nn3)[C@@H]2C1 (single isomer, unassigned) [Example 474] | < 0.3 nM
28 | CCN1CC[C@H]2CCN(c3cc(C)c(-c4ccc(C)cc4O)nn3)[C@H]2C1 (single isomer, unassigned) [Example 475] | 93 nM

Next, values leading:

Row | IC50 | Structure (SMILES)
29 | 298 nM | Cc1cc(C)c(-c2ccc(N3CCOC([C@H](C)O)C3)nn2)c(O)c1 (single isomer, unassigned) [Example 98]
30 | 752 nM | Cc1cc(C)c(-c2ccc(N3CCOC([C@H](C)O)C3)nn2)c(O)c1 (single isomer, unassigned) [Example 99]
31 | 545 nM | Cc1cc(C)c(-c2ccc(N3CCO[C@@H](C(C)O)C3)nn2)c(O)c1 (single isomer, unassigned) [Example 108]
32 | 1060 nM | CCC(=O)C1CN(c2ccc(-c3c(C)cc(C)cc3O)nn2)CCO1 (single isomer, unassigned) [Example 156]
33 | 690 nM | Cc1cc(C(F)(F)F)cc(O)c1-c1ccc(N2CC[C@@H]3CN(C)C[C@@H]32)nn1 (single isomer, unassigned) [Example 271]
34 | 868 nM | Cc1cc(C(F)(F)F)cc(O)c1-c1ccc(N2CCO[C@@H]3CCN(C)C[C@H]32)nn1 (single isomer, unassigned) [Example 301]
35 | 142 nM | CC(=O)N1CC[C@@H]2OCCN(c3ccc(-c4c(C)cc(Cl)cc4O)nn3)[C@@H]2C1 (single isomer, unassigned) [Example 304]
36 | 410 nM | Cc1cc(Cl)cc(O)c1-c1ccc(N2CCO[C@H]3CCN(C)C[C@H]32)nn1 (single isomer, unassigned) [Example 307]
37 | 460 nM | Cc1cc(C(F)(F)F)cc(O)c1-c1ccc(N2CCO[C@H]3CN(C)C[C@H]32)nn1 (single isomer, unassigned) [Example 333]
38 | 73 nM | Cc1cc(C(F)(F)F)cc(O)c1-c1ccc(N2CCO[C@@H]3CN(C)C[C@@H]32)nn1 (single isomer, unassigned) [Example 334]
39 | 1160 nM | CC(=O)N1CCC2OCCN(c3ccc(-c4c(C)cc(C(F)(F)F)cc4O)nn3)C2C1 (single isomer, unassigned) [Example 336]
40 | 199 nM | CC(=O)N1C[C@@H]2OCCN(c3ccc(-c4c(C)cc(C(F)(F)F)cc4O)nn3)[C@@H]2C1 (single isomer, unassigned) [Example 348]
41 | 953 nM | CC(=O)N1CC[C@@H]2OCCN(c3ccc(-c4c(C)cc(C(F)(F)F)cc4O)nn3)[C@H]2C1 (single isomer, unassigned) [Example 349]
42 | 375 nM | CC(=O)N1C[C@H]2OCCN(c3ccc(-c4c(C)cc(C(F)(F)F)cc4O)nn3)[C@H]2C1 (single isomer, unassigned) [Example 352]
43 | 1010 nM | Cc1cc(C)c(-c2ccc(N3CC[C@H]4CCN(C)C[C@H]43)nn2)c(O)c1 (single isomer, unassigned) [Example 383]
44 | 500 nM | CC(=O)N1CC[C@H]2CCN(c3ccc(-c4c(C)cc(C)cc4O)nn3)[C@H]2C1 (single isomer, unassigned) [Example 413]
45 | 699 nM | CC(=O)N1CC[C@@H]2CCN(c3ccc(-c4c(C)cc(C)cc4O)nn3)[C@@H]2C1 (single isomer, unassigned) [Example 414]
46 | 100 nM | Cc1cc(C)c(-c2ccc(N3CCO[C@@H]4C[C@@H](O)C[C@@H]43)nn2)c(O)c1 (single isomer, unassigned) [Example 466]
47 | 14 nM | Cc1cc(C)c(-c2ccc(N3CCO[C@H]4C[C@H](O)C[C@H]43)nn2)c(O)c1 (single isomer, unassigned) [Example 467]
48 | 209 nM | CCc1cc(C)cc(O)c1-c1ccc(N2CC[C@H]3CCN(C)C[C@H]32)nn1 (single isomer, unassigned) [Example 476]
